The source of these data is article PMC8160210, “Single tryptophan Y160W mutant of homooligomeric E. coli purine nucleoside phosphorylase implies that dimers forming the hexamer are functionally not equivalent” (Scientific Reports, 2021).

The target in assay [1] is T1, WT E. coli PNP (Escherichia coli, UniProt P0ABP8).
T1 construct: made in house
T1 sequence (P0ABP8 2-239 limits assumed): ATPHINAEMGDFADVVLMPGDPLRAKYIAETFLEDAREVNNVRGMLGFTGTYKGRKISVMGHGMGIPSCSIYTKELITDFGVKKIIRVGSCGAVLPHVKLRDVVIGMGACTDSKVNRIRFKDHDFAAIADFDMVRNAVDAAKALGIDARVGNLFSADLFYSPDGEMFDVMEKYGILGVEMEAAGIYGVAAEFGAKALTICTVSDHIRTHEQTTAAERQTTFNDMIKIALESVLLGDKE
Briefly: Near-UV CD titrations. It counts as binding. The note with it: for Kd: CD titrations with phosphate, three-binding-site model, 25 °C. Here is the method: (§1) Experiments were performed with Chirascan spectrophotometer (Applied Photophysics), in the near UV region (240–290 nm), thus in the region where aromatic amino acids absorb. Full spectra of the protein/complex were recorded, with 0.2 nm resolution and 2 s averaging per point. Enzyme concentration was in the range of 20–120 μM, the 50 mM Tris/HCl buffer pH 7.6 was used, ligands were dissolved in the same buffer. All measurements were performed at 25 °C. Upon addition of each volume of phosphate solution spectrum was recorded in the range 230–300 nm, in the amino acids absorption region, with 0.25 nm step and 2 s per point signal averaging. Spectra were smoothed with Savitzky-Golay algorithm[44] using a fourth degree polynomial and eleven points in the averaging window. The wavelengths of the greatest signal change were determined by calculating differential spectra. These wavelengths were used to plot the titration curves. Global analysis of five to seven curves was performed with DynaFit4[40].
(§2) Three models were taken into account in analysis of binding curves: model with one (first equation below), two (first two equations) and three binding sites. P+L⇔PLwithKd1PL+L⇔PLLwithKd2PLL+L⇔PLLLwithKd3
(§3) The model with one binding site is based on the assumption that all monomers are equivalent, and there is no cooperation between them. In the model with two binding sites the basic functional unit of the protein is a dimer, possible non-equivalence of binding sites or cooperativity between active sites in the dimer are taken into account (in the case of no cooperativity dissociation constants should be related statistically: Kd2 = 4Kd1), the dimers within hexamer are equivalent. The model with three binding sites is based on the crystallographic structures of binary and ternary complexes of PNP with ligands, where two of the dimers are in the “open-closed” conformation, but the third dimer is symmetrical, in the “open-open” conformation. Thus, active sites in the open conformation belonging to “open-closed” and “open-open” dimer may not be equivalent. […]
(§4) Titration series were analysed globally, always starting from the simplest, one-binding-site model. […] For all tested models the Akaike information criterion[23] was also calculated. […] Analysed models were fitted to the raw data, whereas graphs presented in this study were prepared from the normalised data and the fitted curves. […] Responses are defined as changes in a measured physical quantity related to the formation of subsequent protein–ligand complexes: intrinsic protein fluorescence intensity, fluorescence intensity of the dye, heat and ellipticity for fluorimetric, thermophoretic, calorimetric and CD titrations, respectively. […]

Assay [2] has as its target T2, WT PNP/Pi complex (Escherichia coli, UniProt P0ABP8).
T2 construct: made in house
In words: Thermophoretic (MST) titrations with formycin A. More on the design: species or system E. coli. The note with it: two-binding-site model, 50 mM phosphate, pH 7.6, 25 °C. How it is done:
(§5) Measurements were performed with Monolith NT115 (NanoTemper). Enzyme was labelled with NT647 fluorescent dye (NanoTemper) according to the protocol provided by the manufacturer. Labelled proteins show fluorescence excitation and emission maxima of approximately 650 and 670 nm, respectively. The series of titrations were performed at a constant protein concentration. Both proteins (WT and mutant), and ligands were dissolved in 50 mM Tris/HCl pH 7.6 buffer, measurements were performed at 25 °C. […] In the pre-experiments, it was carefully checked for both proteins, WT and Y160W mutant whether any sign of aggregation or inactivation occurs, and if mutant behaviour is similar to that of the WT enzyme. An example of the raw thermophoretic curves obtained with the relative heating laser power at 60% and 80% are shown in the Supplementary Information (Figure S7).
(§6) Experiments of the nucleoside analogue binding were performed in the presence of saturating concentration of phosphate, i.e. 50 mM. For both, WT PNP and Y160W mutant seven repetitions of each curve were measured, for a single power of the heating laser. The power of the heating laser at which the strongest change of the thermophoretic signal upon ligand binding occurs was selected, namely 80% for both enzyme variants. The raw MST traces, for two highest tested laser powers, 60% and 80%, are presented in the Supplementary information (Figure S7) Protein concentration in the capillary was constant and equal to 0.215 μM and 0.0751 μM for the WT protein and the Y160W mutant, respectively. Series of titrations were analysed globally using the DynaFit4 program[40] (see below).
as §2, §3, §4

For assay [3], the target named is T3, Y160W mutant/Pi complex (Escherichia coli, UniProt P0ABP8, Y161W).
T3 construct: made in house; host or cells: E. coli DH5α-T1
Briefly: Thermophoretic (MST) titrations with formycin A. Details: species or system E. coli. How it is done: as §5, §6, §2, §3, §4

The target in assay [4] is Y160W PNP mutant (Escherichia coli, UniProt P0ABP8, Y161W). Briefly: Near-UV CD titrations. It is filed as binding, E. coli. Details: made in house; host or cells: E. coli DH5α-T1. The note with it: for Kd: CD titrations with phosphate, three-binding-site model, 25 °C. Here is the method:
as §1, §2, §3, §4

Assay [5] addresses T1, WT E. coli PNP. More on the design: method as in PMID 30337572. The following applies: phosphate as variable substrate, 250 μM m^7Guo, allostery Eq. (2), cited from earlier work.
Where [6] appears, read: 50 mM Tris/HCl pH 7.6, read-out: Kd1 ± SD.
Setting [7] is: 50 mM Tris/HCl pH 7.6, read-out: Kd2 ± SD.
[8] abbreviates: 50 mM Tris/HCl pH 7.6, read-out: Kd3 ± SD.

Structures are written as SMILES. Where two headings read alike, the source gives them in different places.

Chain of Y160W PNP mutant (P0ABP8 2-239 Y161W): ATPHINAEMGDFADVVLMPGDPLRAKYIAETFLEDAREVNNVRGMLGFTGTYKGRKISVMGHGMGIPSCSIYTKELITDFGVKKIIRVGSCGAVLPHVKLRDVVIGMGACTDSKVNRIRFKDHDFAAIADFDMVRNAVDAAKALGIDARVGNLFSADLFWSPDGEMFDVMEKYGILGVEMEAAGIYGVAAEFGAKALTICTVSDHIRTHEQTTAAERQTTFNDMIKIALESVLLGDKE
T3 sequence (P0ABP8 2-239 Y161W, one chain of several): as the sequence (P0ABP8 2-239 Y161W) above

For the compound `Nc1ncnc2c([C@@H]3O[C@H](CO)[C@@H](O)[C@H]3O)[nH]nc12` [FA, Formycin A], the “Change in CD signal upon binding” value in assay [1] (formycin A binding) and in assay [4] (formycin A binding) was “no changes in the CD signal” in each case. Besides, the Kd in assay [2] (Kd1 ± SD) came to 0.0107 µM; in assay [2] (Kd3 ± SD), 186 µM; in assay [3] (Kd1 ± SD, three-binding-site model, 50 mM phosphate, pH 7.6, 25 °C), 0.137 µM; in assay [3] (Kd3 ± SD, three-binding-site model, 50 mM phosphate, pH 7.6, 25 °C), 1750 µM; in assay [3] (read-out: Kd2 ± SD, three-binding-site model, 50 mM phosphate, pH 7.6, 25 °C), 110 µM.

What is called Km is the concentration of substrate that gives half-maximal velocity. Take `O=P(O)(O)O` [Pi, Orthophosphate]: the Kd in assay [1] (setting [6]) worked out at 0.58 µM; in assay [1] (setting [7]), 107 µM; in assay [1] (setting [8]), 1030 µM; in assay [4] (setting [6]) it was 4.13 µM; in assay [4] (setting [7]), 128 µM; in assay [4] (setting [8]), 2330 µM. For the same compound, the Km in assay [5] (pH 7.0, 25 °C) is 15 ± 4 µM. Moreover, in assay [5] (pH 7.0, 25 °C), the Vmax is given as 10.8 ± 0.7 U/mg. In addition, the “a (cooperativity coefficient, KM2 = aKM1)” value in assay [5] is 267 ± 232. The “b (cooperativity coefficient, Vmax2 = bVmax1)” value in assay [5] is reported as 0.76 ± 0.06.
